Experimental data reported in ChEMBL document CHEMBL1146430, “Alternatamides A-D: new bromotryptamine peptide antibiotics from the Atlantic marine bryozoan Amathia alternata” (1997).

Assays:
Format in all cases: functional
Staphylococcus aureus = assay: Antibacterial activity against Staphylococcus aureus
[1] = tested on: Staphylococcus epidermidis; assay: Antibacterial activity against Staphylococcus epidermidis
[2] = tested on: Staphylococcus haemolyticus; assay: Antibacterial activity against Staphylococcus haemolyticus
Bacillus subtilis = assay: Antibacterial activity against Bacillus subtilis
Enterococcus faecalis = assay: Antibacterial activity against Enterococcus faecalis
Enterococcus faecium = assay: Antibacterial activity against Enterococcus faecium
Streptococcus pyogenes = assay: Antibacterial activity against Streptococcus pyogenes

Measured: MIC

CN[C@@H](CC(C)C)C(=O)NCCc1c(Br)n(C)c2cc(Br)c(Br)cc12 [ALTEMATAMIDE A]
4 µg/mL: all assays above

CN[C@@H](CC(C)C)C(=O)NCCc1c(Br)[nH]c2cc(Br)c(Br)cc12 [ALTEMATAMIDE B]
4 µg/mL: all assays above

CN[C@@H](CC(C)C)C(=O)NCCc1c(Br)[nH]c2ccc(Br)cc12 [ALTEMATAMIDE C]
4 µg/mL: all assays above
